Measurements reported in patent publication US6706663B2, “Herbicidal 3-heterocyclic substituted benzisothiazole and benzisoxazole compounds” (Wyeth, priority 2000, dated 2004).

Columns and labels:
[1] = system: AMBEL (Ambrosia artemisifolia); test: Postemergence herbicidal evaluation; format: in vivo, L.
Procedure, shortened: (§1)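 Seedlings grown about two weeks in flats, sprayed, then kept under standard greenhouse care. Rated visually 4–5 weeks after treatment on a 0–9 scale (stand, vigour, malformation, size, chlorosis, overall appearance) relative to untreated control; repeat tests averaged.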

[2] = system: CHEAL (Chenopodium album); test: Postemergence herbicidal evaluation; format: in vivo, L.
Procedure, shortened: as §1

[3] = system: CASOB (Cassia obtusifolia); test: Postemergence herbicidal evaluation; format: in vivo, L.
Procedure, shortened: as §1

[4] = system: TRZAWR (Wheat, Winter, cv Riband); test: Postemergence herbicidal evaluation; format: in vivo, Triticum aestivum
Procedure, shortened: as §1

SETVI (Setaria viridis) [5] = test: Postemergence herbicidal evaluation; format: in vivo, (L.) Beau
Procedure, shortened: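 Seedlings about two weeks old were sprayed with compound in 50/50 acetone/water plus 0.5% TWEEN 20, at the equivalent of about 0.0040 to 1.000 kg/ha. Plants were kept in a greenhouse and visually rated 0-9 against a control four to five weeks after treatment. Repeat tests were averaged.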

SETVI (Setaria viridis) [6] = test: Preemergence herbicidal evaluation; format: in vivo, (L.) Beau; details: preemergence, rated 4-5 weeks after treatment
Procedure, shortened: (§2)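 Applied before emergence as an aqueous acetone spray over seeded soil. Read-out: 0–9 visual rating covering plant stand, vigor, size, chlorosis, malformation and overall appearance compared with control, taken 4–5 weeks after spraying.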

[7] = system: ECHCG (Echinochloa crus-galli); test: Preemergence herbicidal evaluation; format: in vivo, (L.) Beau; details: preemergence, rated 4-5 weeks after treatment
Procedure, shortened: as §2

[8] = system: MOOVA (Monochoria vaginalis); test: Flooded paddy, preemergence weed control; format: in vivo, Presl.; details: rated 3-4 weeks after treatment, 0-9 rating scale
Procedure, shortened: (§3)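 In this preemergence paddy assay, weed seeds or organs are sown at up to 0.5 cm in silt loam and covered by 1.5–3 cm of water for the full test period. After treatment the pots are kept in a greenhouse, and herbicidal effect is rated 0-9 visually against a control.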

[9] = system: IPOHE (Ipomoea hederacea); test: Postemergence herbicidal evaluation; format: in vivo, (L.) Jacq.
Procedure, shortened: as §1

GALAP (Galium aparine) [10] = test: Postemergence herbicidal evaluation; format: in vivo
Procedure, shortened: as §1

CYPIR (Cyperus iria) = test: Flooded paddy, preemergence weed control; format: in vivo; details: rated 3-4 weeks after treatment, 0-9 rating scale
Procedure, shortened: as §3

[11] = system: ABUTH (Abutilon theophrasti); test: Postemergence herbicidal evaluation; format: in vivo, Medic.
Procedure, shortened: as §1

[12] = system: AMBEL (Ambrosia artemisifolia); test: Preemergence herbicidal evaluation; format: in vivo, L.; details: preemergence, rated 4-5 weeks after treatment
Procedure, shortened: as §2

[13] = system: CHEAL (Chenopodium album); test: Preemergence herbicidal evaluation; format: in vivo, L.; details: preemergence, rated 4-5 weeks after treatment
Procedure, shortened: as §2

[14] = system: CASOB (Cassia obtusifolia); test: Preemergence herbicidal evaluation; format: in vivo, L.; details: preemergence, rated 4-5 weeks after treatment
Procedure, shortened: as §2

[15] = system: SAGPY (Sagittaria pygmaea); test: Flooded paddy, preemergence weed control; format: in vivo, L.; details: rated 3-4 weeks after treatment, 0-9 rating scale
Procedure, shortened: as §3

ORYSAT (Rice, Tebonnet) [16] = test: Preemergence herbicidal evaluation; format: in vivo, Oryza sativa, (L.) Tebonnet; details: preemergence, rated 4-5 weeks after treatment
GALAP (Galium aparine) [17] = test: Preemergence herbicidal evaluation; format: in vivo; details: preemergence, rated 4-5 weeks after treatment
Procedure, shortened: as §2

ORYSAT (Rice, Tebonnet) [18] = test: Postemergence herbicidal evaluation; format: in vivo, Oryza sativa, (L.) Tebonnet
Procedure, shortened: as §1

[19] = system: CYPSE (Cyperus serotinus); test: Flooded paddy, preemergence weed control; format: in vivo, Rottb.; details: rated 3-4 weeks after treatment, 0-9 rating scale
Procedure, shortened: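 Herbicidal effect was scored visually on a 0–9 scale against an untreated control 3–4 weeks after treatment. Compounds were applied preemergence as 50/50 v/v aqueous/acetone mixtures into flood water (1.5–3 cm deep over silt loam), at roughly 0.0080 to 0.1250 kg/ha active ingredient.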

SMILES: Cn1c(C(F)(F)F)cc(=O)n(-c2ccc3snc(C4SCCS4)c3c2)c1=O [Compound 24, 3-[3-(1,3-dithiolan-2-yl)-1,2-benzisothiazol-5-yl]-1-methyl-6-(trifluoromethyl)uracil]
- Postemergence herbicidal rating, AMBEL ([1]; rate 0.0320 kg/ha): 9.0
- Postemergence herbicidal rating, AMBEL ([1]; rate 0.0620 kg/ha): 9.0
- Postemergence herbicidal rating, CHEAL ([2]; rate 0.0320 kg/ha): 9.0
- Postemergence herbicidal rating, CHEAL ([2]; rate 0.0620 kg/ha): 9.0
- Postemergence herbicidal rating, CASOB ([3]; rate 0.0320 kg/ha): 3.0
- Postemergence herbicidal rating, CASOB ([3]; rate 0.0620 kg/ha): 9.0
- Postemergence herbicidal rating, TRZAWR ([4]; rate 0.0320 kg/ha): 4.0
- Postemergence herbicidal rating, TRZAWR ([4]; rate 0.0620 kg/ha): 4.0
- Postemergence herbicidal rating, SETVI (SETVI (Setaria viridis) [5]; rate 0.0320 kg/ha): 0.0
- Postemergence herbicidal rating, SETVI (SETVI (Setaria viridis) [5]; rate 0.0620 kg/ha): 3.0
- SETVI preemergence herbicidal rating (SETVI (Setaria viridis) [6]; Rate 0.0620 kg/ha): 3.5
- SETVI preemergence herbicidal rating (SETVI (Setaria viridis) [6]; Rate 0.1250 kg/ha): 8.0
- SETVI preemergence herbicidal rating (SETVI (Setaria viridis) [6]; Rate 0.2500 kg/ha): 9.0
- ECHCG preemergence herbicidal rating ([7]; Rate 0.0620 kg/ha): 0.0
- ECHCG preemergence herbicidal rating ([7]; Rate 0.1250 kg/ha): 1.5
- ECHCG preemergence herbicidal rating ([7]; Rate 0.2500 kg/ha): 5.0
- herbicidal rating, MOOVA ([8]; rate 0.0320 kg/ha): 5.0
- herbicidal rating, MOOVA ([8]; rate 0.1250 kg/ha): 8.0
- Postemergence herbicidal rating, IPOHE ([9]; rate 0.0320 kg/ha): 9.0
- Postemergence herbicidal rating, IPOHE ([9]; rate 0.0620 kg/ha): 9.0
- Postemergence herbicidal rating, GALAP (GALAP (Galium aparine) [10]; rate 0.0320 kg/ha): 3.0
- Postemergence herbicidal rating, GALAP (GALAP (Galium aparine) [10]; rate 0.0620 kg/ha): 4.0
- herbicidal rating, CYPIR (CYPIR (Cyperus iria); rate 0.0320 kg/ha): 0.0
- herbicidal rating, CYPIR (CYPIR (Cyperus iria); rate 0.1250 kg/ha): 5.0
- Postemergence herbicidal rating, ABUTH ([11]; rate 0.0320 kg/ha): 9.0
- Postemergence herbicidal rating, ABUTH ([11]; rate 0.0620 kg/ha): 9.0
- AMBEL preemergence herbicidal rating ([12]; Rate 0.0620 kg/ha): 4.5
- AMBEL preemergence herbicidal rating ([12]; Rate 0.1250 kg/ha): 8.0
- AMBEL preemergence herbicidal rating ([12]; Rate 0.2500 kg/ha): 9.0
- CHEAL preemergence herbicidal rating ([13]; Rate 0.0620 kg/ha): 7.5
- CHEAL preemergence herbicidal rating ([13]; Rate 0.1250 kg/ha): 9.0
- CHEAL preemergence herbicidal rating ([13]; Rate 0.2500 kg/ha): 9.0
- CASOB preemergence herbicidal rating ([14]; Rate 0.0620 kg/ha): 0.0
- CASOB preemergence herbicidal rating ([14]; Rate 0.1250 kg/ha): 0.0
- CASOB preemergence herbicidal rating ([14]; Rate 0.2500 kg/ha): 3.0
- herbicidal rating, SAGPY ([15]; rate 0.0320 kg/ha): 0.0
- herbicidal rating, SAGPY ([15]; rate 0.1250 kg/ha): 5.0
- ORYSAT preemergence herbicidal rating (ORYSAT (Rice, Tebonnet) [16]; Rate 0.0620 kg/ha): 0.0
- ORYSAT preemergence herbicidal rating (ORYSAT (Rice, Tebonnet) [16]; Rate 0.1250 kg/ha): 3.0
- ORYSAT preemergence herbicidal rating (ORYSAT (Rice, Tebonnet) [16]; Rate 0.2500 kg/ha): 6.0
- GALAP preemergence herbicidal rating (GALAP (Galium aparine) [17]; Rate 0.0620 kg/ha): 5.0
- GALAP preemergence herbicidal rating (GALAP (Galium aparine) [17]; Rate 0.1250 kg/ha): 5.0
- Postemergence herbicidal rating, ORYSAT (ORYSAT (Rice, Tebonnet) [18]; rate 0.0320 kg/ha): 2.0
- Postemergence herbicidal rating, ORYSAT (ORYSAT (Rice, Tebonnet) [18]; rate 0.0620 kg/ha): 2.5
- herbicidal rating, CYPSE ([19]; rate 0.0320 kg/ha): 0.0
- herbicidal rating, CYPSE ([19]; rate 0.1250 kg/ha): 2.0
